For orientation: Kd means the concentration at which binding is half-saturated. As usually defined, the EC50 is the concentration needed to bring the measured effect to its halfway point.

Bridge positions count the residues as written; N and C are the ends. Square brackets hold non-standard residues; d marks the D form. Peptide text beside a SMILES is read from it. R8 = C=CCCCCCC[C@@](C)(N)C(=O)O; S5 = C=CCCC[C@](C)(N)C(=O)O

The target in data set [1] is 5HB, a recombinant protein containing 3 HR1 domains covalently attached to 2 HR2 domains. Conditions: competition with fluorescently labeled T108 probe (2 nM), 5HB 50 nM, 10 min preincubation + 30 min room temperature, duplicates. The text has this: The RSV HR2 region (residues 476 to 524) is a 49-amino-acid sequence that has been extensively characterized (Fig. 1). HR2 is a largely unstructured peptide in aqueous solution folding into an α-helix upon binding to trimeric HR1 coiled coils ([20]). […] We reduced HR2 (aa 483 to 516) into three short overlapping subdomains (subdomains 1 to 3) (Fig. 1). These peptides were scanned for various stapling combinations. […] Far-UV circular dichroism (CD) spectropolarimetry was used to investigate the effect of stapling on the α-helical content of the peptides. […] To assess the propensity of the stapled peptides to hinder the formation of the postfusion six-helix bundle required for viral cell entry, we used a 5-helix bundle (5HB) biochemical fluorescence polarization (FP) competition assay as previously described ([21], [22]).
The coding sequence of 5HB was designed as described previously and de novo synthesized by Genscript ([21]). The HR1 (aa 126 to 182) and HR2 (aa 476 to 524) coding sequences from wild-type RSV A2 strain F ([36]) were codon optimized for overexpression in Escherichia coli and cloned at NdeI/BamHI restriction sites of pET-15b to generate the expression plasmid for 5HB. The 5HB expression construct was transformed into Escherichia coli BL21(DE3). Cells were grown at 37°C to an optical density at 600 nm of 0.8 followed by induction with isopropyl-1-thio-β-D-galactopyranoside at a final concentration of 0.5 mM for 12 to 15 h. Cells were harvested by centrifugation, washed twice with PBS, and resuspended in 20 ml of PBS (pH 7.4), 500 mM NaCl, and 1% Triton X-100 supplemented with complete protease inhibitor. Cell suspensions were disrupted by sonication. Cell debris was removed through ultracentrifugation at 18,000 × g for 1 h at 4°C, and clarified cell lysate was mixed with 1 ml of nickel-nitrilotriacetic acid (Ni-NTA) agarose beads (Qiagen) preequilibrated with 20 ml of lysis buffer. The suspension was agitated for 1 h at 4°C and loaded onto a 5-ml polypropylene column (Qiagen). The column was washed twice with 8 ml of PBS (pH 7.4), 500 mM NaCl, 1% Triton X-100, and 100 mM imidazole. Proteins were eluted with 5 × 500 μl of a buffer containing PBS (pH 7.4), 300 mM imidazole, and 500 mM NaCl. The imidazole was removed by dialysis, and protein purity was assessed by SDS-polyacrylamide gel electrophoresis followed by Coomassie blue staining. Protein concentration was determined with the Qubit 2.0 Fluorometer (Life Technologies).
The T108 ([12]) peptide probe was synthesized by standard SPPS procedures using HCTU as a coupling reagent as described above. A 10-μl volume of recombinant 5HB protein in FP buffer (20 mM PBS [pH 7.4], 500 mM NaCl, 0.01% [vol/vol] Tween 20, and 0.05 mg/ml bovine gamma globulin) was preincubated for 10 min at room temperature with 10 μl of the appropriate concentration of the inhibitor, after which 10 μl of fluorescein isothiocyanate (FITC)-T106 was added and further incubated for 30 min at room temperature. The final concentrations of protein and probe were 50 nM and 2 nM, respectively. The fluorescence polarization assay was performed in 384-well plates using a Spectramax Paradigm (Molecular Devices), using excitation and emission wavelengths of 485 nm and 535 nm, respectively. The acquisition time was 700 ms, and the read height was 1 mm. All experiments were performed in duplicate. […] In order to ensure robust fitting for some fits, r0 was kept constant at the value measured for the free tracer in buffer.

A further data set is described as follows: circular dichroism. Conditions: 10 mM phosphate; pH 7.5; 25 °C; 50 uM. (Circular dichroism is the unequal absorption of left and right circularly polarised light.)
Data set [2] relates to rHRSV-mCherry in HEp-2 cells. Briefly: rHRSV-mCherry inhibition assay. It is filed as cell-based, human respiratory syncytial virus. To be noted: Table 3 (Ala scan); HEp-2 cells, rHRSV-mCherry MOI 0.2, 2-fold serial dilutions (11 dilutions), duplicate; ± SD of fit. How it is done: To measure the inhibitory activity of the peptide, the mCherry red fluorescence was quantified 48 h postinfection (p.i.).
Viral replication was quantified by measuring the mCherry fluorescence at 48 h p.i. and normalized based on the fluorescence of infected and untreated cells. (B) Cytotoxicity assay. HEp-2 cells were incubated in the presence of serial dilutions of peptides, and cell survival was quantified using the CellTiter-Glo Luminescent cell viability assay 24 h after the addition of the peptides. The signal was normalized based on the luminescence obtained for untreated cells. Error bars are standard deviations from duplicates.
HEp-2 cells were seeded at 5 × 10^4 cells per well in a 96-well plate the day before the infection. Peptides were 2-fold serially diluted in dimethyl sulfoxide (DMSO) (11 dilutions) and then further diluted in EMEM without phenol red and preincubated for 15 to 20 min with rHRSV-mCherry ([24]) at a final dilution with an MOI of 0.2 ([24]). The cells were incubated with the virus-peptide mixtures for a period of 1.5 to 2 h. The medium was then replaced by EMEM without phenol red containing 2% fetal bovine serum and the same concentration of peptide as the one that was used during the infection step. Plates were incubated 48 h at 37°C, and the mCherry fluorescence was measured using a spectrofluorometer (Tecan infinite M200PRO) with excitation and emission wavelengths of 580 and 620 nm, respectively. Relative fluorescence was normalized by the fluorescence of nontreated infected cells. Noninfected HEp-2 cells were used as standards for fluorescence background levels. Each experiment was performed in duplicate and repeated at least twice. The resulting inhibition curves were fitted in Igor Pro as described above.

Turning to `CC[C@H](C)[C@H](NC(=O)[C@H](CCCCN)NC(=O)[C@H](CCC(=O)O)NC(=O)[C@H](CC(N)=O)NC(=O)[C@@H](NC(=O)[C@H](CCC(N)=O)NC(=O)[C@H](CO)NC(=O)[C@@H](NC(=O)[C@H](CO)NC(=O)[C@H](C)NC(=O)[C@H](CC(=O)O)NC(=O)[C@H](Cc1ccccc1)NC(=O)[C@H](CCC(=O)O)NC(=O)[C@H](CC(=O)O)NC(=O)[C@H](CO)NC(=O)[C@@H]1CCCN1C(=O)[C@H](Cc1ccccc1)NC(=O)[C@H](CCC(=O)O)NC(C)=O)[C@@H](C)CC)C(C)C)C(=O)N[C@@H](CC(N)=O)C(N)=O` [Peptide 1] (Ac-EFPSDEFDASISQVNEKIN-NH2), in data set [1], the equilibrium dissociation constant (Kd) turned out to be 2.2 ± 0.5 µM.

For `CC[C@H](C)[C@H](NC(=O)[C@H](CO)NC(=O)[C@H](C)NC(=O)[C@H](CC(=O)O)NC(=O)[C@H](Cc1ccccc1)NC(=O)[C@H](CCC(=O)O)NC(=O)[C@H](CC(=O)O)NC(=O)[C@H](CO)NC(=O)[C@@H]1CCCN1C(=O)[C@H](Cc1ccccc1)NC(=O)[C@H](CCC(=O)O)NC(C)=O)C(=O)N[C@]1(C)CCCCCCC=CCCC[C@@](C)(C(N)=O)NC(=O)[C@H]([C@@H](C)CC)NC(=O)[C@H](CCCCN)NC(=O)[C@H](CCC(=O)O)NC(=O)[C@H](CC(N)=O)NC(=O)[C@H](C(C)C)NC(=O)[C@H](CCC(N)=O)NC1=O` [Peptide 1c] (Ac-EFPSDEFDASI[R8]QVNEKI[S5]-NH2; staple 12-19), in “circular dichroism”, the helicity came to 24.5%. Besides, in data set [1], the equilibrium dissociation constant (Kd) is 221 ± 33 µM.

For the compound `CC[C@H](C)[C@H](NC(=O)[C@H](CCCCN)NC(=O)[C@H](CCC(=O)O)NC(=O)[C@H](CC(N)=O)NC(=O)[C@@H](NC(=O)[C@H](CCC(N)=O)NC(=O)[C@H](CO)NC(=O)[C@@H](NC(=O)[C@H](CO)NC(=O)[C@]1(C)CCCC=CCCC[C@](C)(NC(=O)[C@H](CO)NC(=O)[C@@H]2CCCN2C(=O)[C@H](Cc2ccccc2)NC(=O)[C@H](CCC(=O)O)NC(C)=O)C(=O)N[C@@H](CCC(=O)O)C(=O)N[C@@H](Cc2ccccc2)C(=O)N[C@@H](CC(=O)O)C(=O)N1)[C@@H](C)CC)C(C)C)C(=O)N[C@@H](CC(N)=O)C(N)=O` [Peptide 1e] (Ac-EFPS[S5]EFD[S5]SISQVNEKIN-NH2; staple 5-9), the helicity in “circular dichroism” was found to be 35.5%. Moreover, the dissociation constant (Kd) in data set [1] was found to be 15 ± 3 µM.

`CC[C@H](C)[C@H](NC(=O)[C@H](CCCCN)NC(=O)[C@]1(C)CCCC=CCCC[C@](C)(NC(=O)[C@@H](NC(=O)[C@H](CO)NC(=O)[C@H](C)NC(=O)[C@H](CC(=O)O)NC(=O)[C@H](Cc2ccccc2)NC(=O)[C@H](CCC(=O)O)NC(=O)[C@H](CC(=O)O)NC(=O)[C@H](CO)NC(=O)[C@@H]2CCCN2C(=O)[C@H](Cc2ccccc2)NC(=O)[C@H](CCC(=O)O)NC(C)=O)[C@@H](C)CC)C(=O)N[C@@H](CCC(N)=O)C(=O)N[C@@H](C(C)C)C(=O)N[C@@H](CC(N)=O)C(=O)N1)C(=O)N[C@@H](CC(N)=O)C(N)=O` [Peptide 1g] (Ac-EFPSDEFDASI[S5]QVN[S5]KIN-NH2; staple 12-16) came in with a helicity in “circular dichroism” of 46.8%. In addition, in data set [1], the dissociation constant Kd amounted to 191 ± 19 µM.

As for `CC[C@H](C)[C@H](NC(=O)[C@H](CCCCN)NC(=O)[C@H](CCC(=O)O)NC(C)=O)C(=O)N[C@@]1(C)CCCC=CCCC[C@@](C)(C(=O)N[C@@H](Cc2ccccc2)C(=O)N[C@H](C(=O)N[C@@]2(C)CCCC=CCCC[C@@](C)(C(=O)N[C@@H](CC(C)C)C(=O)N[C@@H](CC(C)C)C(=O)N[C@@H](Cc3c[nH]cn3)C(=O)N[C@@H](C)C(=O)N[C@H](C(N)=O)C(C)C)NC(=O)[C@H](CC(=O)O)NC(=O)[C@H](CO)NC(=O)[C@H](CCCCN)NC2=O)[C@@H](C)CC)NC(=O)[C@H](CC(C)C)NC(=O)[C@H](CO)NC(=O)[C@H](CCC(N)=O)NC1=O` [Peptide N515A] (Ac-EKI[S5]QSL[S5]FI[S5]KSD[S5]LLHAV-NH2; staple 4-8, 11-15), the 50% effective concentration (EC50) in data set [2] came to 2.71 ± 2.93 µM. Further, in “circular dichroism”, the helicity stood at 59%.

As to `CC[C@H](C)[C@H](NC(=O)[C@H](CCCCN)NC(=O)[C@H](CCC(=O)O)NC(C)=O)C(=O)N[C@@]1(C)CCCC=CCCC[C@@](C)(C(=O)N[C@@H](Cc2ccccc2)C(=O)N[C@H](C(=O)N[C@@]2(C)CCCC=CCCC[C@@](C)(C(=O)N[C@@H](CC(C)C)C(=O)N[C@@H](CC(C)C)C(=O)N[C@@H](Cc3c[nH]cn3)C(=O)N[C@@H](CC(N)=O)C(=O)N[C@H](C(N)=O)C(C)C)NC(=O)[C@H](CC(=O)O)NC(=O)[C@H](CO)NC(=O)[C@H](CCCCN)NC2=O)[C@@H](C)CC)NC(=O)[C@H](CC(C)C)NC(=O)[C@H](CO)NC(=O)[C@H](C)NC1=O` [Peptide Q501A] (Ac-EKI[S5]ASL[S5]FI[S5]KSD[S5]LLHNV-NH2; staple 4-8, 11-15), in data set [2], a half-maximal response (EC50) required 0.28 ± 0.43 µM. The helicity in “circular dichroism” amounted to 12%.

With `CC[C@H](C)[C@H](NC(=O)[C@H](CCCCN)NC(=O)[C@H](CCC(=O)O)NC(C)=O)C(=O)N[C@@]1(C)CCCC=CCCC[C@@](C)(C(=O)N[C@@H](Cc2ccccc2)C(=O)N[C@H](C(=O)N[C@@]2(C)CCCC=CCCC[C@@](C)(C(=O)N[C@@H](CC(C)C)C(=O)N[C@@H](CC(C)C)C(=O)N[C@@H](Cc3c[nH]cn3)C(=O)N[C@@H](CC(N)=O)C(=O)N[C@H](C(N)=O)C(C)C)NC(=O)[C@H](CC(=O)O)NC(=O)[C@H](CO)NC(=O)[C@H](CCCCN)NC2=O)[C@@H](C)CC)NC(=O)[C@H](CC(C)C)NC(=O)[C@H](C)NC(=O)[C@H](CCC(N)=O)NC1=O` [Peptide S502A] (Ac-EKI[S5]QAL[S5]FI[S5]KSD[S5]LLHNV-NH2; staple 4-8, 11-15), the response in data set [2] was half-maximal at 0.66 ± 0.26 µM (EC50). Further, the helicity in the data set “circular dichroism” is 15%.

`CC[C@H](C)[C@H](NC(=O)[C@H](CCCCN)NC(=O)[C@H](CCC(=O)O)NC(C)=O)C(=O)N[C@@]1(C)CCCC=CCCC[C@@](C)(C(=O)N[C@@H](Cc2ccccc2)C(=O)N[C@H](C(=O)N[C@@]2(C)CCCC=CCCC[C@@](C)(C(=O)N[C@@H](CC(C)C)C(=O)N[C@@H](CC(C)C)C(=O)N[C@@H](Cc3c[nH]cn3)C(=O)N[C@@H](CC(N)=O)C(=O)N[C@@H](C)C(N)=O)NC(=O)[C@H](CC(=O)O)NC(=O)[C@H](CO)NC(=O)[C@H](CCCCN)NC2=O)[C@@H](C)CC)NC(=O)[C@H](CC(C)C)NC(=O)[C@H](CO)NC(=O)[C@H](CCC(N)=O)NC1=O` [Peptide V516A] (Ac-EKI[S5]QSL[S5]FI[S5]KSD[S5]LLHNA-NH2; staple 4-8, 11-15) yielded a concentration giving a half-maximal response (EC50) in data set [2] of 0.6 ± 0.03 µM. Moreover, the helicity in “circular dichroism” stood at 49%.

(Values after publication PMC5365662, “A Short Double-Stapled Peptide Inhibits Respiratory Syncytial Virus Entry and Spreading” (Antimicrobial Agents and Chemotherapy, 2017).)
